Reference: the CheMixHub viscosity set

Assay: xn = mol fraction of the nth substance listed

C=C1CCC2CC1C2(C)C (stereo unspecified) + Cc1ccccc1
viscosity [mPa·s], 101 kPa
Conditions | x2 = 0.2689 | x2 = 0.3867 | x2 = 0.4951 | x2 = 0.5953 | x2 = 0.6881 | x2 = 0.7744 | x2 = 0.8547 | x2 = 0.9298
303.15 K | 1.188 | 0.995 | 0.86 | 0.754 | 0.684 | 0.633 | 0.595 | 0.564
308.5 K | 1.112 | 0.93 | 0.803 | 0.703 | 0.642 | 0.595 | 0.565 | 0.536
313.15 K | 1.027 | 0.863 | 0.745 | 0.654 | 0.598 | 0.56 | 0.534 | 0.505

Cc1cccc(N)c1 + c1ccccc1
303.15 K, 101.33 kPa
Conditions | viscosity [mPa·s]
x1 = 0.196 | 0.695
x1 = 0.405 | 0.87
x1 = 0.598 | 1.15
x1 = 0.795 | 1.54

Cc1cccnc1 + O
298.15 K, 101 kPa
Conditions | viscosity [mPa·s]
x1 = 0.02104 | 1.202
x1 = 0.04558 | 1.604
x1 = 0.2966 | 3.291
x1 = 0.6032 | 1.972

C=C1CCC2CC1C2(C)C (stereo unspecified) + COC(C)(C)C
298.15 K, 101.33 kPa
Conditions | viscosity [mPa·s]
x2 = 0.0493 | 1.485
x2 = 0.1076 | 1.364
x2 = 0.2248 | 1.142
x2 = 0.354 | 0.93
x2 = 0.439 | 0.8092
x2 = 0.5239 | 0.7038
x2 = 0.6457 | 0.5826
x2 = 0.7594 | 0.4855
x2 = 0.8663 | 0.41
x2 = 0.9007 | 0.3873
x2 = 0.9651 | 0.3495

Cc1cccc(N)c1 + CC1CCCCC1
303.15 K, 101.33 kPa
Conditions | viscosity [mPa·s]
x1 = 0.204 | 0.79
x1 = 0.4 | 0.96
x1 = 0.6 | 1.25
x1 = 0.8 | 1.75

CCCCOCCOCCOCCCC + COC(=O)OC
viscosity [mPa·s], 101.3 kPa
Conditions | 298.15 K | 308.15 K | 318.15 K
x1 = 0.0176 | 0.616 | 0.546 | 0.488
x1 = 0.0289 | 0.635 | 0.562 | 0.498
x1 = 0.0543 | 0.678 | 0.599 | 0.523
x1 = 0.0894 | 0.743 | 0.65 | 0.56
x1 = 0.1574 | 0.862 | 0.747 | 0.634
x1 = 0.2414 | 1.012 | 0.867 | 0.726
x1 = 0.3274 | 1.169 | 0.991 | 0.82
x1 = 0.3389 | 1.189 | 1.005 | 0.83
x1 = 0.44 | 1.367 | 1.131 | 0.947
x1 = 0.5417 | 1.518 | 1.266 | 1.043
x1 = 0.636 | 1.653 | 1.377 | 1.125
x1 = 0.7193 | 1.745 | 1.451 | 1.182
x1 = 0.8605 | 1.934 | 1.606 | 1.289
x1 = 0.9421 | 2.047 | 1.677 | 1.351

CCCCC(=O)O + CCCCCCCO
viscosity [mPa·s], 100 kPa
Conditions | x1 = 0.0814 | x1 = 0.1667 | x1 = 0.2436 | x1 = 0.3521 | x1 = 0.4395 | x1 = 0.5617 | x1 = 0.6566 | x1 = 0.7424 | x1 = 0.8518 | x1 = 0.9437
293.15 K | 6.67 | 6.29 | 5.94 | 5.44 | 5.02 | 4.43 | 3.96 | 3.54 | 2.99 | 2.53
303.15 K | 4.79 | 4.54 | 4.31 | 3.98 | 3.7 | 3.31 | 3 | 2.72 | 2.36 | 2.06
313.15 K | 3.52 | 3.32 | 3.14 | 2.9 | 2.72 | 2.46 | 2.27 | 2.09 | 1.87 | 1.68
323.15 K | 2.66 | 2.53 | 2.42 | 2.26 | 2.13 | 1.96 | 1.83 | 1.71 | 1.56 | 1.43

Oc1cccc2ccccc12 + CCCCO
viscosity [mPa·s], 101 kPa
Conditions | x1 = 0.04 | x1 = 0.08 | x1 = 0.12 | x1 = 0.16 | x1 = 0.2
293.15 K | 3.278 | 3.6 | 3.953 | 4.407 | 4.888
303.15 K | 2.489 | 2.719 | 2.974 | 3.265 | 3.61
313.15 K | 1.952 | 2.106 | 2.289 | 2.512 | 2.745
323.15 K | 1.56 | 1.685 | 1.816 | 1.966 | 2.14

CCCCCCCC[N+](C)(CCCCCCCC)CCCCCCCC.[Cl-] + COC(=O)OC
Conditions | viscosity [mPa·s]
298.15 K, 101 kPa, x1 = 0.65 | 534.7

CCCCOCCOCCOCCCC + CC1COC(=O)O1
viscosity [mPa·s], 101.3 kPa
Conditions | 298.15 K | 308.15 K | 318.15 K
x1 = 0.007 | 2.562 | 2.064 | 1.704
x1 = 0.0158 | 2.574 | 2.086 | 1.721
x1 = 0.059 | 2.676 | 2.174 | 1.735
x1 = 0.1317 | 2.748 | 2.244 | 1.768
x1 = 0.2166 | 2.735 | 2.263 | 1.773
x1 = 0.3183 | 2.7 | 2.187 | 1.729
x1 = 0.356 | 2.674 | 2.161 | 1.712
x1 = 0.3871 | 2.649 | 2.141 | 1.695
x1 = 0.4126 | 2.635 | 2.129 | 1.686
x1 = 0.4929 | 2.579 | 2.086 | 1.649
x1 = 0.5658 | 2.534 | 2.051 | 1.623
x1 = 0.5869 | 2.526 | 2.045 | 1.62
x1 = 0.6616 | 2.487 | 2.013 | 1.595
x1 = 0.7058 | 2.475 | 1.999 | 1.584
x1 = 0.748 | 2.469 | 1.992 | 1.566
x1 = 0.8266 | 2.402 | 1.954 | 1.537
x1 = 0.9183 | 2.323 | 1.899 | 1.489

NCCNCCN + CCO
viscosity [mPa·s], 100 kPa
Conditions | x2 = 0.1023 | x2 = 0.2001 | x2 = 0.3566 | x2 = 0.492 | x2 = 0.6001 | x2 = 0.6952 | x2 = 0.7703 | x2 = 0.8378 | x2 = 0.897 | x2 = 0.9523
298.15 K | 5.92 | 5.97 | 5.63 | 5.02 | 4.36 | 3.7 | 3.08 | 2.51 | 1.97 | 1.49
303.15 K | 4.85 | 4.98 | 4.76 | 4.25 | 3.74 | 3.17 | 2.69 | 2.2 | 1.76 | 1.34
308.15 K | 4.21 | 4.33 | 4.13 | 3.69 | 3.24 | 2.79 | 2.4 | 1.99 | 1.62 | 1.24

C1=Cc2cccc3cccc1c23 + ClC(Cl)Cl
viscosity [mPa·s], 101 kPa
Conditions | 298.15 K | 303.15 K | 308.15 K | 313.15 K
x1 = 0.1595 | 0.892 | 0.8295 | 0.7764 | 0.7199
x1 = 0.2105 | 0.9695 | 0.907 | 0.8473 | 0.7968

Oc1cccc2ccccc12 + CCCCCOC(C)=O
Conditions | viscosity [mPa·s]
298.15 K, 101 kPa, x2 = 0.5 | 1.549

CCCCC(=O)O + CCCCCCCCCCO
viscosity [mPa·s], 100 kPa
Conditions | x1 = 0.0851 | x1 = 0.1742 | x1 = 0.2512 | x1 = 0.3616 | x1 = 0.4363 | x1 = 0.5587 | x1 = 0.6618 | x1 = 0.7474 | x1 = 0.8618 | x1 = 0.9312
293.15 K | 12.76 | 11.18 | 9.99 | 8.58 | 7.71 | 6.4 | 5.35 | 4.5 | 3.44 | 2.83
303.15 K | 8.73 | 7.68 | 6.9 | 5.97 | 5.41 | 4.56 | 3.89 | 3.35 | 2.65 | 2.25
313.15 K | 6.17 | 5.54 | 5.06 | 4.45 | 4.07 | 3.47 | 2.99 | 2.61 | 2.12 | 1.83
323.15 K | 4.49 | 4.09 | 3.79 | 3.38 | 3.12 | 2.7 | 2.37 | 2.1 | 1.75 | 1.55

Oc1cccc(O)c1 + CCO
Conditions | viscosity [mPa·s]
323.15 K, 101 kPa, x1 = 0.07 | 1.265

C=C1CCC2CC1C2(C)C (stereo unspecified) + c1ccccc1
viscosity [mPa·s], 101 kPa
Conditions | x2 = 0.3052 | x2 = 0.4296 | x2 = 0.5395 | x2 = 0.6373 | x2 = 0.7249 | x2 = 0.8039 | x2 = 0.8754 | x2 = 0.9405
303.15 K | 1.187 | 0.998 | 0.867 | 0.759 | 0.691 | 0.646 | 0.614 | 0.593
308.15 K | 1.106 | 0.936 | 0.807 | 0.71 | 0.655 | 0.619 | 0.587 | 0.566
313.15 K | 1.022 | 0.866 | 0.749 | 0.658 | 0.614 | 0.583 | 0.556 | 0.537

CCCC[N+](CCCC)(CCCC)CCCC.[Br-] + NCCO
101 kPa, x1 = 0.143
Conditions | viscosity [mPa·s]
298.15 K | 53.49
303.15 K | 40.7
308.15 K | 31.66
313.15 K | 25.12
318.15 K | 20.28
323.15 K | 16.63

CCCCC(=O)O + CCCCCCCCCO
viscosity [mPa·s], 100 kPa
Conditions | x1 = 0.0827 | x1 = 0.1635 | x1 = 0.2318 | x1 = 0.3519 | x1 = 0.4517 | x1 = 0.5569 | x1 = 0.6472 | x1 = 0.7328 | x1 = 0.8691 | x1 = 0.9502
293.15 K | 10.14 | 8.95 | 8.08 | 6.89 | 6.05 | 5.25 | 4.6 | 4 | 3.09 | 2.56
303.15 K | 6.95 | 6.12 | 5.53 | 4.73 | 4.16 | 3.64 | 3.22 | 2.86 | 2.32 | 2.03
313.15 K | 5.09 | 4.64 | 4.3 | 3.78 | 3.39 | 2.99 | 2.67 | 2.38 | 1.95 | 1.71
323.15 K | 3.76 | 3.47 | 3.26 | 2.92 | 2.66 | 2.39 | 2.17 | 1.96 | 1.64 | 1.46
